A short description of one data set: Surface tension and critical micelle concentration (CMC) of aqueous surfactant solutions. In kind it is physicochemical. Particulars: Table 3; deionized water.
Excerpt: Critical Micelle Concentration (CMC): The critical micelle concentration is defined as the concentration at which further surface tension is no longer lowered with increasing levels of surfactant. […] Surface tension is then plotted vs. log concentration and the data points are connected. The resulting curve has a nearly horizontal flat portion at concentrations above the CMC and has a negative steep slope at concentrations below the CMC. The CMC is defined as the lowest surfactant concentration in the horizontal flat portion of the curve.
(§1) Then the critical micelle concentration (CMC) was determined for each surfactant.
as §1
In the case of `O=C(NCCC[N+]1([O-])CCOCC1)C(F)(C(F)(F)F)C(F)(F)C(F)(F)C(F)(F)C(F)(F)C(F)(F)C(F)(F)C(F)(F)F` (stereo not drawn) [Example E9], the “solubility” value is on record as “low solub”. Same read-out and setting: under `C[N+](C)([O-])CCCNC(=O)C(F)(C(F)(F)C(F)(F)C(F)(F)F)C(F)(F)C(F)(F)C(F)(F)C(F)(F)C(F)(F)C(F)(F)C(F)(F)F` (stereo not drawn) [Example E7, C7 F15 CF(C3 F7)CONH(CH2)3 N^+ (CH3)2 O^-] stands “low solub”. For `O=C([O-])CC[N+]1(CCCNC(=O)C(F)(C(F)(F)F)C(F)(F)C(F)(F)C(F)(F)C(F)(F)C(F)(F)C(F)(F)C(F)(F)F)CCOCC1` (stereo not drawn) [Example K3], the CMC came to 1000 ppm. `O=C(NCCC[N+]1(CCO)CCOCC1)C(F)(C(F)(F)F)C(F)(F)C(F)(F)C(F)(F)C(F)(F)C(F)(F)C(F)(F)C(F)(F)F` (stereo not drawn) [Example F5] displayed a CMC of 1000 ppm.

Still in this data set, the particulars now being: Table 3; deionized water, at CMC.
With `C[N+](C)([O-])CCCNC(=O)C(F)(C(F)(F)F)C(F)(F)C(F)(F)C(F)(F)C(F)(F)C(F)(F)C(F)(F)F` (stereo not drawn) [Example E3, C6 F13 CF(CF3)CONH(CH2)3 N^+ (CH3)2 O^-], the “Surf Tens. (surface tension at the CMC)” value is on record as 16.6 dynes/cm.

On to `C[N+](C)(CCCNC(=O)C(F)(C(F)(F)F)C(F)(F)C(F)(F)C(F)(F)C(F)(F)C(F)(F)C(F)(F)C(F)(F)F)CCC(=O)[O-]` (stereo not drawn) [Example K1, C7 F15 CF(CF3)CONH(CH2)3 N^+ (CH3)2 C2 H4 COO^-], for which the “Surf Tens. (surface tension at the CMC)” value came to 16.6 dynes/cm. As to `C[N+](C)(CCO)CCCNC(=O)C(F)(C(F)(F)F)C(F)(F)C(F)(F)C(F)(F)C(F)(F)C(F)(F)C(F)(F)C(F)(F)F` (stereo not drawn) [Example F4], the “Surf Tens. (surface tension at the CMC)” value was determined as 19.0 dynes/cm.

For the molecule `C[N+](C)([O-])CCCNC(=O)C(F)(C(F)(F)F)C(F)(F)C(F)(F)C(F)(F)C(F)(F)C(F)(F)C(F)(F)C(F)(F)F` (stereo not drawn) [Example E1, C7 F15 CF(CF3)CONH(CH2)3 N^+ (CH3)2 O^-], the “Surf Tens. (surface tension at the CMC)” value came out at 16.3 dynes/cm. Still for that read-out and setting: then “C6 F13 CF(CF3)CON(C3 H6 SO3^-)(CH2)3 N^+ (CH3)2 H [Example K2]”, with 20.3 dynes/cm. Take `C[n+]1ccc(C(=O)NCCOC(=O)C(F)(C(F)(F)F)C(F)(F)C(F)(F)C(F)(F)C(F)(F)C(F)(F)C(F)(F)F)cc1` (stereo not drawn) [Example F2]: the “Surf Tens. (surface tension at the CMC)” value is 15.5 dynes/cm. Turning to `O=C(NCCOC(=O)C(F)(C(F)(F)F)C(F)(F)C(F)(F)C(F)(F)C(F)(F)C(F)(F)C(F)(F)C(F)(F)F)c1cc[n+]([O-])cc1` (stereo not drawn) [Example E10], the “Surf Tens. (surface tension at the CMC)” value worked out at 14.5 dynes/cm.

On to `O=C(OCCc1cccc[n+]1[O-])C(F)(C(F)(F)F)C(F)(F)C(F)(F)C(F)(F)C(F)(F)C(F)(F)C(F)(F)F` (stereo not drawn) [Example E12], for which the “Surf Tens. (surface tension at the CMC)” value was 18.3 dynes/cm.

`C[N+](C)([O-])CCCNC(=O)C(F)(C(F)(F)F)C(F)(F)C(F)(F)C(F)(F)C(F)(F)C(F)(F)C(F)(F)C(F)(F)C(F)(F)C(F)(F)C(F)(F)F` (stereo not drawn) [Example E5, C10 F21 CF(CF3)CONH(CH2)3 N^+ (CH3)2 O^-]: the “Surf Tens. (surface tension at the CMC)” value is 17.1 dynes/cm. The same measure, in the same setting: then `O=C(OCCc1cccc[n+]1[O-])C(F)(C(F)(F)F)C(F)(F)C(F)(F)C(F)(F)C(F)(F)C(F)(F)C(F)(F)C(F)(F)F` (stereo not drawn) [Example E13], with 15.0 dynes/cm.

With “C8 F17 CF(CF3)CO(OCH2 CH2)16 OCH3 [Example J1]”, the “Surf Tens. (surface tension at the CMC)” value was 22 dynes/cm. For `O=C([O-])CC[N+]1(CCCNC(=O)C(F)(C(F)(F)F)C(F)(F)C(F)(F)C(F)(F)C(F)(F)C(F)(F)C(F)(F)C(F)(F)F)CCOCC1` (stereo not drawn) [Example K3], the “Surf Tens. (surface tension at the CMC)” value was determined as 19.2 dynes/cm. Regarding `C[N+](C)([O-])CCCNC(=O)C(F)(C(F)(F)F)C(F)(F)C(F)(F)C(F)(F)C(F)(F)C(F)(F)F` (stereo not drawn) [Example E2, C5 F11 CF(CF3)CONH(CH2)3 N^+ (CH3)2 O^-], the “Surf Tens. (surface tension at the CMC)” value was determined as 17.5 dynes/cm. Still for that read-out and setting: then `O=C(NCCC[N+]1(CCO)CCOCC1)C(F)(C(F)(F)F)C(F)(F)C(F)(F)C(F)(F)C(F)(F)C(F)(F)C(F)(F)C(F)(F)F` (stereo not drawn) [Example F5], with 20.8 dynes/cm; and `C[N+](C)([O-])CCCN(CCO)C(=O)C(F)(C(F)(F)F)C(F)(F)C(F)(F)C(F)(F)C(F)(F)C(F)(F)C(F)(F)C(F)(F)F` (stereo not drawn) [Example E8, C7 F15 CF(CF3)CON(C2 H4 OH)(CH2)3 N^+ (CH3)2 O^-], with 16.6 dynes/cm; and `C[N+](C)(CCO)CCCNC(=O)C(F)(C(F)(F)F)C(F)(F)C(F)(F)C(F)(F)C(F)(F)C(F)(F)F` (stereo not drawn) [Example F3], with 17.0 dynes/cm. The same measure, in the same setting: under `CN(C)CCCN(CCCN(C)C)C(=O)C(F)(C(F)(F)F)C(F)(F)C(F)(F)C(F)(F)C(F)(F)C(F)(F)C(F)(F)C(F)(F)F` (stereo not drawn) [Example F9, C7 F15 CF(CF3)CON[C3 H6 N^+ (CH3)2 H]2 2[^- OOCCH3]] stands 22.0 dynes/cm; under `C[N+](C)([O-])CCCNC(=O)C(F)(C(F)(F)F)C(F)(F)C(F)(F)C(F)(F)C(F)(F)C(F)(F)C(F)(F)C(F)(F)C(F)(F)F` (stereo not drawn) [Example E4, C8 F17 CF(CF3)CONH(CH2)3 N^+ (CH3)2 O^-], 16.5 dynes/cm. For `C[n+]1ccc(C(=O)NCCOC(=O)C(F)(C(F)(F)F)C(F)(F)C(F)(F)C(F)(F)C(F)(F)C(F)(F)C(F)(F)C(F)(F)F)cc1` (stereo not drawn) [Example F1], the “Surf Tens. (surface tension at the CMC)” value is 15.0 dynes/cm. `O=C(NCCOC(=O)C(F)(C(F)(F)F)C(F)(F)C(F)(F)C(F)(F)C(F)(F)C(F)(F)C(F)(F)F)c1cc[n+]([O-])cc1` (stereo not drawn) [Example E11]: the “Surf Tens. (surface tension at the CMC)” value was 15.5 dynes/cm. Regarding `C[N+](C)(CCCN(CCC[N+](C)(C)CCC(=O)[O-])C(=O)C(F)(C(F)(F)F)C(F)(F)C(F)(F)C(F)(F)C(F)(F)C(F)(F)C(F)(F)C(F)(F)F)CCC(=O)[O-]` (stereo not drawn) [Example K4], the “Surf Tens. (surface tension at the CMC)” value amounted to 23.6 dynes/cm.

The data set is the same for the next values; noted with them: Table 5; deionized water, at CMC.
Take `O=C(O)C(F)(C(F)(F)F)C(F)(F)C(F)(F)C(F)(F)C(F)(F)C(F)(F)C(F)(F)C(F)(F)F` (stereo not drawn) [Example M30, C7 F15 CF(CF3)COO^- 1/2[H3 N^+ C2 H4 NHC2 H4 N^+ H3]]: the “Surf. Tens. (surface tension at the CMC)” value was 16.2 dynes/cm.

Regarding `O=C(O)C(F)(C(F)(F)F)C(F)(F)C(F)(F)C(F)(F)C(F)(F)C(F)(F)C(F)(F)F` (stereo not drawn) [Example M25, C6 F13 CF(CF3)COO^- Na^+], the “Surf. Tens. (surface tension at the CMC)” value worked out at 19.8 dynes/cm.

In the case of `O=C(O)C(F)(C(F)(F)F)C(F)(F)C(F)(F)C(F)(F)C(F)(F)C(F)(F)C(F)(F)C(F)(F)F` (stereo not drawn) [Example M23, C7 F15 CF(CF3)COO^- K^+], the “Surf. Tens. (surface tension at the CMC)” value amounted to 15.0 dynes/cm.

For `O=C(O)C(F)(C(F)(F)F)C(F)(F)C(F)(F)C(F)(F)C(F)(F)C(F)(F)C(F)(F)C(F)(F)F` (stereo not drawn) [Example M27, C7 F15 CF(CF3)COO^- Li^+], the “Surf. Tens. (surface tension at the CMC)” value worked out at 24.1 dynes/cm.

Take `O=C(O)C(F)(C(F)(F)F)C(F)(F)C(F)(F)C(F)(F)C(F)(F)C(F)(F)C(F)(F)C(F)(F)F` (stereo not drawn) [Example M20, C7 F15 CF(CF3)COO^- H3 N^+ C2 H4 OH]: the “Surf. Tens. (surface tension at the CMC)” value turned out to be 15.0 dynes/cm.

In the case of `O=C(O)C(F)(C(F)(F)F)C(F)(F)C(F)(F)C(F)(F)C(F)(F)C(F)(F)C(F)(F)F` (stereo not drawn) [Example M22, C6 F13 CF(CF3)COO^- K^+], the “Surf. Tens. (surface tension at the CMC)” value is 17.5 dynes/cm. As for `O=C(O)C(F)(C(F)(F)F)C(F)(F)C(F)(F)C(F)(F)C(F)(F)C(F)(F)C(F)(F)C(F)(F)F` (stereo not drawn) [Example M26, C7 F15 CF(CF3)COO^- Na^+], the “Surf. Tens. (surface tension at the CMC)” value is 19.4 dynes/cm. Same read-out and setting: then `O=C(O)C(F)(C(F)(F)F)C(F)(F)C(F)(F)C(F)(F)C(F)(F)C(F)(F)C(F)(F)C(F)(F)C(F)(F)F` (stereo not drawn) [Example M24, C8 F17 CF(CF3)COO^- K^+], with 16.4 dynes/cm.

The values above are taken from patent US6015838A, “Aqueous film-forming foam compositions” (3M Innovative Properties Company, priority 1996, dated 2000).
